Source: patent US11932645B2, “Substituted pyrazolo[1,5-a]pyrimidines and their use in the treatment of medical disorders” (Bial—R&D Investments, S.A., priority 2014, dated 2024)

Columns and labels:
[1] = biological target: T1, glucocerebrosidase (Gcase) (Homo sapiens, UniProt P04062); assay: Glucocerebrosidase (Gcase) activation assay, 4-methylumbelliferyl-beta-D-glucopyranoside substrate, with saposin C; type: biochemical; conditions: 10 nM GCase, 100 nM saposin C, pH 4.7
T1 sequence (P04062 40-536): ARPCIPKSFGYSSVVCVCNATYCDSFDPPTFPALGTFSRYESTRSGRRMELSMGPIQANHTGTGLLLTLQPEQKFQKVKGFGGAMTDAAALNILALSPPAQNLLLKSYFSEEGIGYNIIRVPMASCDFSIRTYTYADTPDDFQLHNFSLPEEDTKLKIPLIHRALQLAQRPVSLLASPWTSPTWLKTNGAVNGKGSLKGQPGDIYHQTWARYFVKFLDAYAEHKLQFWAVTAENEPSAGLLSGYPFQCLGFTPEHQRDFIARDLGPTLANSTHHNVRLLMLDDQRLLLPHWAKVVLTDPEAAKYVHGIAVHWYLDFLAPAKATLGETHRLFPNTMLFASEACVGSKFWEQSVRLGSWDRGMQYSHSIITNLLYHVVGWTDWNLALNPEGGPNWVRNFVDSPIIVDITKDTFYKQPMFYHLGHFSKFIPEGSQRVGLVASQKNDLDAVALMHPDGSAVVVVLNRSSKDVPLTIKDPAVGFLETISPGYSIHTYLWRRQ
Method: The ability of exemplary compounds to activate glucocerebrosidase (Gcase) was measured.
A 484 μL aliquot of a 1.0 mg/mL solution of phosphatidylserine (PS) (Sigma P7769) in chloroform was evaporated under a stream of nitrogen for 1 hour. The lipid film was dissolved over 4 minutes of vigorous vortexing in 40 mL of 176 mM K2HPO4/50 mM citric acid (pH 4.7) containing 7.5 μL of triton X-100, resulting in a mixed micellar preparation with a composition of 0.32 mM triton and 0.37 mol % PS. 4-Methylumbelliferyl-beta-D-glucopyranoside (ACROS-337025000) was dissolved in the micellar solution to a final concentration of 2 mM for use as the reaction substrate.
Test compounds were diluted to the desired concentrations with dimethylsulfoxide (DMSO) from 10 mM stocks, and 0.41 μL of the DMSO compound mixture was added to 100 μL of micellar solution containing 10 nM GCase and 100 nM saposin C (Enzo ALX-201-262-C050). Pre-incubation was allowed to occur for 30 minutes at room temperature, after which the reaction was initiated by combining 25 μL of substrate solution with 25 μL of compound/GCase/saposin mixture. The reaction proceeded for 15 minutes at room temperature and was stopped by adding 150 μL of 1M glycine, pH 12.5. The endpoint of the reaction was monitored by measuring fluorescence intensity (excitation: 365 nm; emission: 440 nm) on a SpectraMax i3 instrument (Molecular Devices). Test compounds were screened at 1.0 and 0.1 μM final concentration, and subsequent 8-point dose response curves were obtained using 3-fold dilutions from a maximum final concentration of 5 μM.
For experiments in which the test compound was used at a concentration of 1.0 μM, the symbol “+” indicates less than 30% Gcase activation; the symbol “++” indicates Gcase activation in the range of 30% up to 60%; and the symbol “+++” indicates Gcase activation greater than 60%. For experiments in which the test compound was used at a concentration of 0.1 μM, the symbol “*” indicates less than 10% Gcase activation; the symbol “**” indicates Gcase activation in the range of 10% up to 20%; and the symbol “***” indicates greater than 20% Gcase activation.

[2] = Compound solubility in water; type: physicochemical

Row | Structure (SMILES) | Percent Gcase Activation 0.1 μM Test Compound [1] | Percent Gcase Activation 1 μM Test Compound [1] | Compound Solubility in Water [2] [µg/mL]
1 | Cc1cc(C)n2ncc(C(=O)Nc3ccc(-c4ccc[nH]4)cc3)c2n1 [III-76] | ** (Gcase activation in the range of 10% up to 20%) | ++ (Gcase activation in the range of 30% up to 60%) | 0.01
2 | Cc1cc(Cl)nc2c(C(=O)NC(C)(C)c3ccc(Cl)cc3)cnn12 [III-69] | *** (greater than 20% Gcase activation) | +++ (Gcase activation greater than 60%) | 
3 | Cc1cc(C)n2ncc(C(=O)N[C@H](C)c3ccc(Cl)cc3)c2n1 [III-64] | ** (Gcase activation in the range of 10% up to 20%) | +++ (Gcase activation greater than 60%) | 
4 | Cc1cc(C)n2ncc(C(=O)Nc3ccc(Cl)c(COc4cccnc4)c3)c2n1 [III-51] | ** (Gcase activation in the range of 10% up to 20%) | +++ (Gcase activation greater than 60%) | 
5 | C#Cc1ccc(NC(=O)c2cnn3c(C)cc(NC)nc23)cc1 [III-77] | *** (greater than 20% Gcase activation) | +++ (Gcase activation greater than 60%) | 
6 | Cc1cc(C)n2ncc(C(=O)Nc3ccc(-c4ccon4)cc3)c2n1 [III-9] | * (less than 10% Gcase activation) | +++ (Gcase activation greater than 60%) | 
7 | Cc1cc(C)n2ncc(C(=O)Nc3ccc(-c4ccc[nH]4)cc3)c2n1 [III-57] | ** (Gcase activation in the range of 10% up to 20%) | + (less than 30% Gcase activation) | <1.5
8 | Cc1cc(C)n2ncc(C(=O)Nc3ccc4nc(C)oc4c3)c2n1 [III-44] | * (less than 10% Gcase activation) | + (less than 30% Gcase activation) | 
9 | Cc1cc(C)n2ncc(C(=O)Nc3ccc4nc(C)[nH]c4c3)c2n1 [III-45] | * (less than 10% Gcase activation) | + (less than 30% Gcase activation) | 
10 | Cc1cc(C)n2ncc(C(=O)Nc3ccc(C(C)O)cc3)c2n1 (centres unmarked) [III-35] | * (less than 10% Gcase activation) | + (less than 30% Gcase activation) | 
11 | Cc1cc(C)n2ncc(C(=O)Nc3ccc4c(c3)C(C3=NCCN3)CCC4)c2n1 (centres unmarked) [III-73] | * (less than 10% Gcase activation) | + (less than 30% Gcase activation) | 
12 | Cc1cc(C)n2ncc(C(=O)NC3CCc4ccccc43)c2n1 (centres unmarked) [III-79] | ** (Gcase activation in the range of 10% up to 20%) |  | 
13 | Cc1cc(C)n2ncc(C(=O)Nc3ccc4c(c3)CCNC4)c2n1 [III-46] | * (less than 10% Gcase activation) | + (less than 30% Gcase activation) | 
14 | CCCCCOc1ccc(NC(=O)c2cnn3c(C)cc(C)nc23)cc1 [III-32] | ** (Gcase activation in the range of 10% up to 20%) | +++ (Gcase activation greater than 60%) | 
